# In US12465585B2, “Compositions for the management of seizure induced neurotoxicity” (SAMI-SABINSA GROUP LIMITED, priority 2018, dated 2025):
# Assays:
# Assay type in all cases: in vivo
# cortex of the brain = assay: Anti-oxidant parameters in brain cortex, kainic acid induced seizure rat model; conditions: KA seizure rat model, KA vs control
# Experimental: (§1) Two-month-old male Sprague-Dawley rats were purchased from commercial vendor and housed at 25°±2° C., with the humidity maintained at 55%, wood chip bedding, on a 12:12 hour dark/light cycle, with free access to food and water. All animal procedures were carried out in accordance with NIH and Auburn University Animal Care and Use Committee guidelines. The rats were divided into four groups (1. Control, 2. Kainic acid (10 mg/kg), 3. LD (Low Dose)-composition containing OBC 250 mg/kg+Kainic acid, and 4. High Dose (HD)-composition containing OBC 500 mg/kg+Kainic acid). Composition containing OBC was mixed with powdered feed and administered orally for 2 weeks prior to kainic-acid administration. […] Neuroscience. 1982; 7(10):2525-36; Jinde et al., Lack of kainic acid-induced gamma oscillations predicts subsequent CA1 excitotoxic cell death. Eur J Neurosci. 2009; 30(6):1036-55; Medvedev et al., Kainic acid induces distinct types of epileptiform discharge with differential involvement of hippocampus and neocortex. Brain Res Bull. 2000; 52(2):89-98). Typically, Racine scores include the following stages:
# For the complete management of epilepsy, it is imperative to reduce the incidence of seizures and also to effectively manage and correct the damage to the neurons which is induced by recurrent seizure activity. Drugs which reduced the incidence of seizures may not effectively manage and correct the clinical conditions resulting from seizures. Failure to correct and manage such effects results in neurodegeneration. The ability of a composition comprising oroxylin A, baicalein and chrysin (OBC) [250 mg/kg—low dose (LD) and 500 mg/kg—high dose (HD)] to management of neurotoxicity associated by epilepsy was tested in kainic acid induced seizure rat model. The biochemical parameters like ROS, hydrogen peroxide, protein carbonyl levels, nitrite levels, glutathione content, mitochondrial activity, and caspase activity were estimated in the cortex of the rat models.
# caspase 1 = assay: Caspase 1 activity in brain cortex, kainic acid induced seizure rat model; conditions: KA seizure rat model, KA vs control, OBC 250 and 500 mg/kg
# Experimental: as §1
# (§2) For the complete management of epilepsy, it is imperative to reduce the incidence of seizures and also to effectively manage and correct the damage to the neurons which is induced by recurrent seizure activity. […]
# caspase 3 = assay: Caspase 3 activity in brain cortex, kainic acid induced seizure rat model; conditions: KA seizure rat model, KA vs control, OBC 250 and 500 mg/kg
# Experimental: as §1, §2
# [1] = OBC 250 and 500 mg/kg oral 2 weeks
smiles,measurement,setting,value
C=C(C)[C@H]1CN[C@H](C(=O)O)[C@H]1CC(=O)O [Kainic acid],Glutathione levels (FIG. 7),cortex of the brain; OBC 250 and 500 mg/kg,decreased
same,Hydrogen peroxide levels (FIG. 4),cortex of the brain; [1],significantly increased
same,Lipid peroxidation (FIG. 5),cortex of the brain; [1],significantly increased
same,Nitrite content (FIG. 3),cortex of the brain; [1],significantly increased
same,Protein carbonyl content (FIG. 6),cortex of the brain; [1],significantly increased
same,ROS generation (FIG. 2),cortex of the brain; [1],significantly increased
same,Activity of caspase 1 (FIG. 9),caspase 1,significantly increased
same,Activity of caspase 3 (FIG. 10),caspase 3,significantly increased
